Data: patent publication US20240165244A1 (Prelude Therapeutics Incorporated, priority 2022, published 2024)

Tests used:
SMARCA4 = target: T1, SMARCA4 (Homo sapiens, UniProt P51532); assay: SMARCA4 HiBiT degradation assay in HeLa cells; format: cell-based; conditions: 18 hours, highest concentration 10 μM
T1 construct: SMARCA4-HiBiT knock-in Hela monoclonal cell (CS3023226); host or cells: HeLa monoclonal cells with heterozygous HiBiT knock-in at the endogenous SMARCA4 locus
Protocol: (§1) SMARCA2 HiBiT and SMARCA4 HiBiT Degradation Assay
HiBiT peptide knock-in of SMARCA2 in LgBiT expressing HEK293T cells was performed by CRISPR-mediated tagging system as described Promega. […] SMARCA2-HiBiT knock-in Hela monoclonal cell (CS302366) and SMARCA4-HiBiT knock-in Hela monoclonal cell (CS3023226) were purchased from Promega.
(§2) SMARCA2 HiBiT and SMARCA4 HiBiT Degradation Assay in HeLa Cells
Remove appropriate volume of resuspended cells from culture flask to accommodate 2500 cells/well @ 20 μL/well. […] Spin down at 1000 rpm for 5 min using tabletop centrifuge (SPINCHRON 15, Beckman).
Dispense test compounds onto plates using digital liquid dispenser (D300E, Tecan). Incubate plates in humidified tissue culture incubator @37° C. for 18 hours. […] Raw data files and compound information reports are swept into centralized data lake and deconvoluted using automated scripts designed by TetraScience, Inc. Data analysis, curve-fitting and reporting done in Dotmatics Informatics Suite using Screening Ultra module.

SMARCA2 = target: T2, SMARCA2 (Homo sapiens, UniProt P51531); assay: SMARCA2 HiBiT degradation assay in HeLa cells; format: cell-based; conditions: 18 hours, highest concentration 10 μM
T2 construct: SMARCA2-HiBiT knock-in Hela monoclonal cell (CS302366); host or cells: HeLa monoclonal cells with heterozygous HiBiT knock-in at the endogenous SMARCA2 locus
Protocol: as §1
HiBiT peptide knock-in of SMARCA2 in LgBiT expressing HEK293T cells was performed by CRISPR-mediated tagging system as described Promega. The homozygous HiBiT knock-in on c-terminus SMARCA2 was confirmed by sanger sequence. SMARCA2-HiBiT knock-in Hela monoclonal cell (CS302366) and SMARCA4-HiBiT knock-in Hela monoclonal cell (CS3023226) were purchased from Promega. The heterozygous HiBiT-knock-in was confirmed by sanger sequence in both SMARCA2-HiBiT and SMARCA4-HiBiT monoclonal cells.
as §2
Dispense 10 ul aliquot of prepared Hela-SMARCA2-HiBiT or Hela-SMARCA4-HiBiT cells (1:1 ratio of cells:Trypan Blue (#1450013, Bio-Rad)) onto cell counting slide (#145-0011, Bio-Rad) and obtain cell density and cell viability using cell counter (TC20, Bio-Rad). Remove appropriate volume of resuspended cells from culture flask to accommodate 2500 cells/well @ 20 μL/well. Transfer Hela-HiBiT cells to 50 mL conical (#430290, Corning). Spin down at 1000 rpm for 5 min using tabletop centrifuge (SPINCHRON 15, Beckman). Discard supernatant and resuspend cell pellet in modified EMEM (#30-2003, ATCC) cell culture media containing 10% FBS (F2422-500ML, Sigma), and 1× Penicillin/Streptomycin ([…]) (30-002-CI, Corning) to a cell density of 125,000 cells/mL. Dispense 20 μLof resuspended Hela-HiBit cells per well in 384-well TC treated plate (#12-565-343, Thermo Scientific) using standard cassette (#50950372, Thermo Scientific) on Multidrop Combi (#5840310, Thermo Scientific) inside laminar flow cabinet.
Compounds were dissolved in DMSO to make 10 mM stock and 3-fold series dilutions were further conducted keeping the highest concentration 10 μM. Dispense test compounds onto plates using digital liquid dispenser (D300E, Tecan). Incubate plates in humidified tissue culture incubator @37° C. for 18 hours. Add 20 μL of prepared Nano-Glo® HiBiT Lytic detection buffer (N3050, Promega) to each well of 384-well plate using small tube cassette (#24073295, Thermo Scientific) on Multidrop Combi, incubate @ RT for 30-60 min. Read plates on microplate reader (Envision 2105, PerkinElmer) using 384 well Ultra-Sensitive luminescence mode. Raw data files and compound information reports are swept into centralized data lake and deconvoluted using automated scripts designed by TetraScience, Inc. Data analysis, curve-fitting and reporting done in Dotmatics Informatics Suite using Screening Ultra module.

T2 sequence (P51531 whole entry): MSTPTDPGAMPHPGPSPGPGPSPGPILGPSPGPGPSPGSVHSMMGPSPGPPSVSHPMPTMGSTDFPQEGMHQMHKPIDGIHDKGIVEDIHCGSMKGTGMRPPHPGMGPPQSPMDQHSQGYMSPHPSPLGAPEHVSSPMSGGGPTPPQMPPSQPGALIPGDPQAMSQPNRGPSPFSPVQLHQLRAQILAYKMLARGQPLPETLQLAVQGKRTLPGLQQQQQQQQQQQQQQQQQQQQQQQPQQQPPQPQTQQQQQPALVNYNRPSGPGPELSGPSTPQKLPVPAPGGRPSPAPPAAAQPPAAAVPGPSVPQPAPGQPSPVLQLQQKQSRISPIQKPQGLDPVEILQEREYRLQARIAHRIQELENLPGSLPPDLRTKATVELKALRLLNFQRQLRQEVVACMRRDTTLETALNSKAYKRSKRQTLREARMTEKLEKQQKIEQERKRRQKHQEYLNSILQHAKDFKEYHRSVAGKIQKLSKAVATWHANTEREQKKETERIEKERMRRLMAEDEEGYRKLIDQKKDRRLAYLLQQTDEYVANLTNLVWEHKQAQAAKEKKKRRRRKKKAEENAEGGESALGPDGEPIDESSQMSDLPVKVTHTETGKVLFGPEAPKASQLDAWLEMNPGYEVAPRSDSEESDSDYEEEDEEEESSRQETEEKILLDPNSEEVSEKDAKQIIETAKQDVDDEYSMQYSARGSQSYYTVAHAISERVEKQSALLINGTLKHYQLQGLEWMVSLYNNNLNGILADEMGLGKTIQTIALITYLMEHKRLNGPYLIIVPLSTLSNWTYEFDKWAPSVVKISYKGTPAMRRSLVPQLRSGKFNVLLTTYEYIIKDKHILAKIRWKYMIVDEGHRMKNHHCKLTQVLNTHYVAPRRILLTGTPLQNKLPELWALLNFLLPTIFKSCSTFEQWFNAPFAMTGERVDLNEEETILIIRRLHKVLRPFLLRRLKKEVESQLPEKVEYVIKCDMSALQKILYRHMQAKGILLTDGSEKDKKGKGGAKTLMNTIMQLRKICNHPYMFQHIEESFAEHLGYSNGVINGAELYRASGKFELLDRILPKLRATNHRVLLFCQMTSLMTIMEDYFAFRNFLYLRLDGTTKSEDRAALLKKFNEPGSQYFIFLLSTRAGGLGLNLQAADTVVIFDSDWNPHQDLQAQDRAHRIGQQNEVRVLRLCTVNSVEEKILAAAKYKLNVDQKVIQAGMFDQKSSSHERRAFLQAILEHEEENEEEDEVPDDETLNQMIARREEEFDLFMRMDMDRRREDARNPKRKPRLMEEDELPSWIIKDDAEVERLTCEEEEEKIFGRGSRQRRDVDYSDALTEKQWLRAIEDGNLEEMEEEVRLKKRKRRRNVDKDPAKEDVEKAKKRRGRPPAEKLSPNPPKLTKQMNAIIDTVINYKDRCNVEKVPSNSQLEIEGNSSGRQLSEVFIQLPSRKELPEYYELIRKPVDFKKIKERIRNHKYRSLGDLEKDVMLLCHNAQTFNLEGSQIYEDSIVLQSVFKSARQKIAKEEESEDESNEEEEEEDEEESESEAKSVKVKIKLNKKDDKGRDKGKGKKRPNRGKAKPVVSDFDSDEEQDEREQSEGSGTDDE
T1 sequence (P51532 whole entry): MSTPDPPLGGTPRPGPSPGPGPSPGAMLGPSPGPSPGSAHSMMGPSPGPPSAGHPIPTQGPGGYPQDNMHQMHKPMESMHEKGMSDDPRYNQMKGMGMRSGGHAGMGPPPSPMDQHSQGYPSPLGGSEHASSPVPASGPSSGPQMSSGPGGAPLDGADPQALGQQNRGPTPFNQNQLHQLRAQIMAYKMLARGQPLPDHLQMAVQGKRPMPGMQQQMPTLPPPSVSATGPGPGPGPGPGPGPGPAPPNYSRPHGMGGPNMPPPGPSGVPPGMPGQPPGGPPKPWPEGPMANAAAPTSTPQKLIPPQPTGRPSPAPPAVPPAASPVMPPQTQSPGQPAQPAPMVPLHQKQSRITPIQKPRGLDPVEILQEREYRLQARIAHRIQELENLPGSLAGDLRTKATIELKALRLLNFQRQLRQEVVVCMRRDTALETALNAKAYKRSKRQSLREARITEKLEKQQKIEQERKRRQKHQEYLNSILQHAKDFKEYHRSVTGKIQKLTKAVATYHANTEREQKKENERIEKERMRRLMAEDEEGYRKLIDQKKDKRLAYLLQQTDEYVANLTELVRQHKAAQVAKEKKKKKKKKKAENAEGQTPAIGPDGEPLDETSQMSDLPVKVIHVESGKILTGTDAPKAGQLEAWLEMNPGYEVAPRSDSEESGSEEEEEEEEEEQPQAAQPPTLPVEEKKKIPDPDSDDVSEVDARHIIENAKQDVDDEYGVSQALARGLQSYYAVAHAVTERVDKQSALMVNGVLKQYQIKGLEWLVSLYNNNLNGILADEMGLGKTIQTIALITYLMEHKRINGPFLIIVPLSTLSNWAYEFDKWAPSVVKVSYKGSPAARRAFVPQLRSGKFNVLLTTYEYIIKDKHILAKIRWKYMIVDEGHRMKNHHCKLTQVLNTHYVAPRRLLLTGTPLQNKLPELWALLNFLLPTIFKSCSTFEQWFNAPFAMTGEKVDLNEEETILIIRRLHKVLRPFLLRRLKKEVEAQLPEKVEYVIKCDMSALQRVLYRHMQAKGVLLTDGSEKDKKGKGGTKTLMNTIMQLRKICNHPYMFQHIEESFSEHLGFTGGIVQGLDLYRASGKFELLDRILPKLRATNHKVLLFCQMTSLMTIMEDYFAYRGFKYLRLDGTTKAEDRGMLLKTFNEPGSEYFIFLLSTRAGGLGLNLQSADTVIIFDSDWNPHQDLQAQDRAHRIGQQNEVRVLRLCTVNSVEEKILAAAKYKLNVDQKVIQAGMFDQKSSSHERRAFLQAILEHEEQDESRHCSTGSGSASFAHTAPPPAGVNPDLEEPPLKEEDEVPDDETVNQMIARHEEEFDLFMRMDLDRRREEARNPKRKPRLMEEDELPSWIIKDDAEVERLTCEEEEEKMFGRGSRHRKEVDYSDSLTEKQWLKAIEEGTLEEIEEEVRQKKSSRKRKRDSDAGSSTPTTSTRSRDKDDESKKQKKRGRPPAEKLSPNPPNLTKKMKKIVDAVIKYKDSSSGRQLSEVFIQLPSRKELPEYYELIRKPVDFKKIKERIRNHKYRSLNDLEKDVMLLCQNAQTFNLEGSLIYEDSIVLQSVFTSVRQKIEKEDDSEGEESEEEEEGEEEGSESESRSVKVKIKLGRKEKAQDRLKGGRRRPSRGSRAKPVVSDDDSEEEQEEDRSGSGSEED

O=C1CCC(N2Cc3ccc(N4CCN(Cc5ccc(O[C@@H]6C[C@@H]7CNc8nnc(-c9cc(F)cc(F)c9O)cc8N7C6)c(Cl)c5)CC4)cc3C2=O)C(=O)N1 (stereo partly drawn) [Example 6, 3-(6-(4-(3-chloro-4-(((6aR,8R)-2-(3,5-difluoro-2-hydroxyphenyl)-5,6,6a,7,8,9-hexahydropyrrolo[1′,2′:4,5]pyrazino[2,3-c]pyridazin-8-yl)oxy)benzyl)piperazin-1-yl)-1-oxoisoindolin-2-yl)piperidine-2,6-dione]
DC50 (SMARCA4): < 0.1 µM
Dmax (SMARCA4): > 75%
DC50 (SMARCA2): < 0.1 µM
Dmax (SMARCA2): > 75%

Cc1c(O[C@H]2CN3c4cc(-c5cccc(F)c5O)nnc4NC[C@]3(C(F)F)C2)cnc(CN2CCN(c3ccc4c(c3)C(=O)N([C@H]3CCC(=O)NC3=O)C4)CC2)c1C [Example 46, (S)-3-(6-(4-((5-(((6aS,8R)-6a-(difluoromethyl)-2-(3-fluoro-2-hydroxyphenyl)-5,6,6a,7,8,9-hexahydropyrrolo [1′,2′:4,5]pyrazino[2,3-c]pyridazin-8-yl)oxy)-3,4-dimethylpyridin-2-yl)methyl)piperazin-1-yl)-1-oxoisoindolin-2-yl)piperidine-2,6-dione]
DC50 (SMARCA4): < 0.1 µM
Dmax (SMARCA4): > 75%
DC50 (SMARCA2): < 0.1 µM
Dmax (SMARCA2): > 75%

CC(C)c1cc(CN2CCN(c3ccc4c(c3)C(=O)N(C3CCC(=O)NC3=O)C4)CC2)ccc1O[C@@H]1C[C@@H]2CNc3nnc(-c4cc(F)cc(F)c4O)cc3N2C1 (stereo partly drawn) [Example 14, 3-(6-(4-(4-(((6aR,8R)-2-(3,5-difluoro-2-hydroxyphenyl)-5,6,6a,7,8,9-hexahydropyrrolo[1′,2′:4,5]pyrazino[2,3-c]pyridazin-8-yl)oxy)-3-isopropylbenzyl)piperazin-1-yl)-1-oxoisoindolin-2-yl)piperidine-2,6-dione]
DC50 (SMARCA4): < 0.1 µM
Dmax (SMARCA4): > 75%
DC50 (SMARCA2): < 0.1 µM
Dmax (SMARCA2): > 75%

Cc1nc(CN2CCC(c3ccc4c(c3)C(=O)N([C@H]3CCC(=O)NC3=O)C4)CC2)cnc1O[C@H]1CN2c3cc(-c4cccc(F)c4O)nnc3NC[C@@]2(CF)C1 [Example 65, (S)-3-(6-(1-((5-(((6aR,8R)-2-(3-Fluoro-2-hydroxyphenyl)-6a-(fluoromethyl)-5,6,6a,7,8,9-hexahydropyrrolo[1′,2′:4,5]pyrazino[2,3-c]pyridazin-8-yl)oxy)-6-methylpyrazin-2-yl)methyl)piperidin-4-yl)-1-oxoisoindolin-2-yl)piperidine-2,6-dione]
DC50 (SMARCA4): 0.1 to 1 µM
Dmax (SMARCA4): < 50%
DC50 (SMARCA2): < 0.1 µM
Dmax (SMARCA2): > 75%

O=C1CCC(N2Cc3ccc(N4CCN(Cc5ccc(S[C@@H]6C[C@@H]7CNc8nnc(-c9cc(F)cc(F)c9O)cc8N7C6)cc5)CC4)cc3C2=O)C(=O)N1 (stereo partly drawn) [Example 32]
DC50 (SMARCA4): < 0.1 µM
Dmax (SMARCA4): 50 to 75%
DC50 (SMARCA2): < 0.1 µM
Dmax (SMARCA2): > 75%

CC[C@]12CNc3nnc(-c4cccc(F)c4O)cc3N1C[C@H](Oc1cnc(CN3CCC(c4ccc5c(c4)C(=O)N([C@H]4CCC(=O)NC4=O)C5)CC3)c(C)c1)C2 [Example 104, (S)-3-(6-(1-((5-(((6aS,8R)-6a-ethyl-2-(3-fluoro-2-hydroxyphenyl)-5,6,6a,7,8,9-hexahydropyrrolo[1′,2′:4,5]pyrazino[2,3-c]pyridazin-8-yl)oxy)-3-methylpyridin-2-yl)methyl)piperidin-4-yl)-1-oxoisoindolin-2-yl)piperidine-2,6-dione]
DC50 (SMARCA4): < 0.1 µM
Dmax (SMARCA4): 50 to 75%
DC50 (SMARCA2): < 0.1 µM
Dmax (SMARCA2): > 75%

CC[C@]12CNc3nnc(-c4cccc(C)c4O)cc3N1C[C@H](Oc1cnc(CN3CCC(c4ccc5c(c4)C(=O)N([C@H]4CCC(=O)NC4=O)C5)CC3)c(C)c1)C2 [Example 97, (S)-3-(6-(1-((5-(((6aS,8R)-6a-ethyl-2-(2-hydroxy-3-methylphenyl)-5,6,6a,7,8,9-hexahydropyrrolo[1′,2′:4,5]pyrazino[2,3-c]pyridazin-8-yl)oxy)-3-methylpyridin-2-yl)methyl)piperidin-4-yl)-1-oxoisoindolin-2-yl)piperidine-2,6-dione]
DC50 (SMARCA4): < 0.1 µM
Dmax (SMARCA4): 50 to 75%
DC50 (SMARCA2): < 0.1 µM
Dmax (SMARCA2): > 75%

O=C1CCC(N2Cc3ccc(N4CCN(Cc5ccc(O[C@@H]6C[C@@H]7CNc8nnc(-c9cc(F)cc(Cl)c9O)cc8N7C6)cc5)CC4)cc3C2=O)C(=O)N1 (stereo partly drawn) [Example 22, 3-(6-(4-(4-(((6aR,8R)-2-(3-chloro-5-fluoro-2-hydroxyphenyl)-5,6,6a,7,8,9-hexahydropyrrolo[1′,2′:4,5]pyrazino[2,3-c]pyridazin-8-yl)oxy)benzyl)piperazin-1-yl)-1-oxoisoindolin-2-yl)piperidine-2,6-dione]
DC50 (SMARCA4): < 0.1 µM
Dmax (SMARCA4): > 75%
DC50 (SMARCA2): < 0.1 µM
Dmax (SMARCA2): > 75%

C[C@]12CNc3nnc(-c4cccc(F)c4O)cc3N1C[C@H](Oc1cnc(CN3CCN(c4ccc5c(c4)C(=O)N([C@H]4CCC(=O)NC4=O)C5)CC3)cn1)C2 [Example 79, (S)-3-(6-(4-((5-(((6aS,8R)-2-(3-fluoro-2-hydroxyphenyl)-6a-methyl-5,6,6a,7,8,9-hexahydropyrrolo[1′,2′:4,5]pyrazino[2,3-c]pyridazin-8-yl)oxy)pyrazin-2-yl)methyl)piperazin-1-yl)-1-oxoisoindolin-2-yl)piperidine-2,6-dione]
DC50 (SMARCA4): < 0.1 µM
Dmax (SMARCA4): 50 to 75%
DC50 (SMARCA2): < 0.1 µM
Dmax (SMARCA2): > 75%

Cc1nc(O[C@H]2CN3c4cc(-c5cccc(F)c5O)nnc4NC[C@@]3(C)C2)nc(C)c1CN1CCN(c2ccc3c(c2)C(=O)N([C@H]2CCC(=O)NC2=O)C3)CC1 [Example 75, (S)-3-(6-(4-((2-(((6aR,8R)-2-(3-fluoro-2-hydroxyphenyl)-6a-methyl-5,6,6a,7,8,9-hexahydropyrrolo[1′,2′:4,5]pyrazino[2,3-c]pyridazin-8-yl)oxy)-4,6-dimethylpyrimidin-5-yl)methyl)piperazin-1-yl)-1-oxoisoindolin-2-yl)piperidine-2,6-dione]
DC50 (SMARCA4): 0.1 to 1 µM
Dmax (SMARCA4): < 50%
DC50 (SMARCA2): < 0.1 µM
Dmax (SMARCA2): > 75%

Cc1nc(O[C@H]2CN3c4cc(-c5cccc(F)c5O)nnc4NC[C@@]3(C)C2)ncc1CN1CCC(c2ccc3c(c2)C(=O)N([C@H]2CCC(=O)NC2=O)C3)CC1 [Example 77, (S)-3-(6-(1-((2-(((6aR,8R)-2-(3-fluoro-2-hydroxyphenyl)-6a-methyl-5,6,6a,7,8,9-hexahydropyrrolo[1′,2′:4,5]pyrazino[2,3-c]pyridazin-8-yl)oxy)-4-methylpyrimidin-5-yl)methyl)piperidin-4-yl)-1-oxoisoindolin-2-yl)piperidine-2,6-dione]
DC50 (SMARCA4): > 1 µM
Dmax (SMARCA4): < 50%
DC50 (SMARCA2): < 0.1 µM
Dmax (SMARCA2): > 75%

COc1cc(O[C@@H]2C[C@@H]3CNc4nnc(-c5cc(F)cc(F)c5O)cc4N3C2)ccc1CN1CCN(c2ccc3c(c2)C(=O)N(C2CCC(=O)NC2=O)C3)CC1 (stereo partly drawn) [Example 12, 3-(6-(4-(4-(((6aR,8R)-2-(3,5-difluoro-2-hydroxyphenyl)-5,6,6a,7,8,9-hexahydropyrrolo[1′,2′:4,5]pyrazino[2,3-c]pyridazin-8-yl)oxy)-2-methoxybenzyl)piperazin-1-yl)-1-oxoisoindolin-2-yl)piperidine-2,6-dione]
DC50 (SMARCA4): < 0.1 µM
Dmax (SMARCA4): > 75%
DC50 (SMARCA2): < 0.1 µM
Dmax (SMARCA2): > 75%
